Experimental data reported in PubChem BioAssay AID1845201 (Molecular Pharmacology Branch, DTP, NCI, 2023).
“And” between values parts separate entries of the source, which are not always exact repeats. Equal values may be shown once.

System: COR L88 complex tumor spheroid viability
Test: Anticancer human tumor COR L88 cell line growth inhibition;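 also: compound exposure lasted 7 days before viability readout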;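 as to viability, T/C: percent of DMSO vehicle-treated spheroids = 100%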
Details: for viability, T/C: stronger effect = lower value
Outline: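 Single agents and combinations were tested on spheroids built from tumor cells plus HUVEC and hMSC, at half-log dilutions starting at or near clinical Cmax, else 10 microM; final DMSO 0.25% (v/v).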

[1] = curve of first compound, second compound 1 µM
[2] = curve of first compound, second compound 3.16 µM
[3] = curve of first compound, second compound 10 µM
[4] = curve of first compound, second compound 31.6 µM
[5] = curve of first compound, second compound 100 µM
[6] = second compound 1 µM, first compound 0.0316 µM
[7] = second compound 1 µM, first compound 0.1 µM
[8] = second compound 1 µM, first compound 0.316 µM
[9] = second compound 1 µM, first compound 1 µM
[10] = second compound 1 µM, first compound 3.16 µM
[11] = second compound 1 µM, first compound 10 µM
[12] = second compound 3.16 µM, first compound 0.0316 µM
[13] = second compound 3.16 µM, first compound 0.1 µM
[14] = second compound 3.16 µM, first compound 0.316 µM
[15] = second compound 3.16 µM, first compound 1 µM
[16] = second compound 3.16 µM, first compound 3.16 µM
[17] = second compound 3.16 µM, first compound 10 µM
[18] = second compound 10 µM, first compound 0.0316 µM
[19] = second compound 10 µM, first compound 0.1 µM
[20] = second compound 10 µM, first compound 0.316 µM
[21] = second compound 10 µM, first compound 1 µM
[22] = second compound 10 µM, first compound 3.16 µM
[23] = second compound 10 µM, first compound 10 µM
[24] = second compound 31.6 µM, first compound 0.0316 µM
[25] = second compound 31.6 µM, first compound 0.1 µM
[26] = second compound 31.6 µM, first compound 0.316 µM
[27] = second compound 31.6 µM, first compound 1 µM
[28] = second compound 31.6 µM, first compound 3.16 µM
[29] = second compound 31.6 µM, first compound 10 µM
[30] = second compound 100 µM, first compound 0.0316 µM
[31] = second compound 100 µM, first compound 0.1 µM
[32] = second compound 100 µM, first compound 0.316 µM
[33] = second compound 100 µM, first compound 1 µM
[34] = second compound 100 µM, first compound 3.16 µM
[35] = second compound 100 µM, first compound 10 µM

| Compound | IC50 [1] [µM] | IC50 [2] [µM] | IC50 [3] [µM] | IC50 [4] [µM] | IC50 [5] [µM] | viability, T/C [6] [%] | viability, T/C [7] [%] | viability, T/C [8] [%] | viability, T/C [9] [%] | viability, T/C [10] [%] | viability, T/C [11] [%] | viability, T/C [12] [%] | viability, T/C [13] [%] | viability, T/C [14] [%] | viability, T/C [15] [%] | viability, T/C [16] [%] | viability, T/C [17] [%] | viability, T/C [18] [%] | viability, T/C [19] [%] | viability, T/C [20] [%] | also measured |
| --- | --- | --- | --- | --- | --- | --- | --- | --- | --- | --- | --- | --- | --- | --- | --- | --- | --- | --- | --- | --- | --- |
| O=C(c1cc(Cc2n[nH]c(=O)c3ccccc23)ccc1F)N1CCN(C(=O)C2CC2)CC1 | – | – | – | – | – | – | – | – | – | – | – | – | – | – | – | – | – | – | – | – | viability, T/C (compound 0.0949 µM): 97.2% and 87.7% and 107%; viability, T/C (compound 0.3 µM): 98.2% and 101% and 103%; viability, T/C (compound 0.949 µM): 101% and 97.9% and 94.2%; viability, T/C (compound 3 µM): 85.7% and 87.9% and 90.7%; viability, T/C (compound 9.49 µM): 61.5% and 67.3% and 70.3%; viability, T/C (compound 30 µM): 49.8% and 50.5% and 58.2%; IC50 (curve of compound): > 30 µM |
| Cc1cc(C)c(CNC(=O)c2cc(-c3ccc(CN4CCOCC4)cc3)cc3c2cnn3C2CCCC2)c(=O)[nH]1 + Cn1nnc2c(C(N)=O)ncn2c1=O | > 10 | > 10 | > 10 | 8.54 | 3.35 | 102 | 97 | 93 | 86.1 | 76.8 | 53.3 | 101 | 99.5 | 88.5 | 83.2 | 72 | 56.5 | 90.7 | 86.4 | 88.5 | viability, T/C [21]: 75.2%; viability, T/C [22]: 69.8%; viability, T/C [23]: 51.3%; viability, T/C [24]: 86.7%; viability, T/C [25]: 79.1%; viability, T/C [26]: 78%; viability, T/C [27]: 69%; viability, T/C [28]: 56.1%; viability, T/C [29]: 49.7%; viability, T/C [30]: 68.7%; viability, T/C [31]: 62.7%; viability, T/C [32]: 63%; viability, T/C [33]: 52.7%; viability, T/C [34]: 49.1%; viability, T/C [35]: 47% |
| [2H]c1nc(C)nc([2H])c1-c1cc(NC[C@@H](C)c2cccc3c(C(=O)NC)ccnc23)ncn1 + Cn1nnc2c(C(N)=O)ncn2c1=O | > 10 | > 10 | > 10 | > 10 | > 10 | 97.1 | 98.5 | 89.8 | 93.3 | 96 | 97 | 94.5 | 95.3 | 105 | 98.6 | 102 | 103 | 92.2 | 93.3 | 97.7 | viability, T/C [21]: 88.7%; viability, T/C [22]: 88.9%; viability, T/C [23]: 98.7%; viability, T/C [24]: 80%; viability, T/C [25]: 85.6%; viability, T/C [26]: 75.9%; viability, T/C [27]: 82.4%; viability, T/C [28]: 82.2%; viability, T/C [29]: 75.8%; viability, T/C [30]: 66%; viability, T/C [31]: 66.6%; viability, T/C [32]: 63.7%; viability, T/C [33]: 69.5%; viability, T/C [34]: 64.2%; viability, T/C [35]: 65.8% |
